Results as given in publication PMC9269301, “Phytochemical Analysis, Antioxidant, Antimicrobial, and Cytotoxic Activity of Different Extracts of Xanthoparmelia stenophylla Lichen from Stara Planina, Serbia” (Plants, 2022).
Values after ≈ are worked out from the molar mass of the structure shown. Where two headings read alike, the source gives them in different places.

Legend:
[1] = test system: S. aureus ATCC 6538 biofilm; experiment: Antibiofilm activity (biofilm formation, crystal violet); assay type: cell-based, Staphylococcus aureus; conditions: for IC50: Staphylococcus aureus, read-out: BIC50 (biofilm inhibitory concentration, 50% reduction of biofilm coverage)
Experimental: (§1) The ability of S. aureus ATCC 6538 and P. aeruginosa to form biofilms was assayed as described by O’Toole et al. with some modifications. Briefly, the tissue culture of 96-well microtiter plates (Sarstedt, Germany) were prepared by dispensing 100 µL of nutrient broth (i.e., Mueller–Hinton broth) into each well. Ten microliters of spore suspension (10^8 colony-forming units (CFU)/mL) was added into each row. […] Biofilms formed by adherent cells in 96-well microtiter plates were stained with crystal violet (0.1% w/v; Fluka AG, Buchs, Switzerland) and incubated at room temperature for 20 min. Excess stain was rinsed off by thorough washing with deionized water and then with […] of 96% ethanol. Optical densities (ODs) of stained adherent bacteria were determined with an enzyme-linked immunosorbent assay (ELISA) plate reader (RT-2100C, Rayto, Shenzhen, China) at a 630 nm wavelength. Only broth served as a control to check sterility and nonspecific binding of media. To compensate for background absorbance, OD readings from sterile medium, fixative, and dye were averaged and subtracted from all test values. All tests were performed in duplicate. The tissue culture of 96-well microtiter plates (Sarstedt, Nümbrecht, Germany) were prepared by dispensing 100 µL of nutrient broth (i.e., Mueller–Hinton broth) into each well. From the stock solution of the tested extracts or components (concentration: 20 mg/mL), 100 µL was added to the first row of the microtiter plate. Two-fold serial dilutions were then made using a multichannel pipette, following which 10 µL of fresh bacterial suspension was added to each well. The inoculated microtiter plates were incubated at 37 °C for 48 h. After incubation, the content of each well was gently removed by tapping the microtiter plates. […] Biofilms formed by adherent cells in 96-well microtiter plates were stained with crystal violet (0.1% w/v; Fluka AG, Switzerland) and incubated at room temperature for 20 min. Excess stain was rinsed off by thorough washing with deionized water and then with […] densities (ODs) of stained adherent bacteria were determined with an enzyme-linked immunosorbent assay (ELISA) plate reader at a 630 nm wavelength. […] Only broth or broth with extracts served as a control to check the sterility and nonspecific binding of media. To compensate for background absorbance, OD readings from sterile medium, extracts, fixative, and dye were averaged and subtracted from all test values. All tests were performed in duplicate.

P. aeruginosa biofilm = experiment: as above; assay type: cell-based, Pseudomonas aeruginosa; conditions: 48 h; for IC50: Pseudomonas aeruginosa, read-out: BIC50 (biofilm inhibitory concentration, 50% reduction of biofilm coverage)
Experimental: as §1

C. albicans ATCC 10231 = experiment: Microdilution with resazurin, antifungal; assay type: cell-based, Candida albicans; conditions: Candida albicans, ATCC10231, antimycotics
Experimental: (§2) The tested methanol, acetone, and n-hexane extracts, as well as the component (usnic acid) of X. stenophylla, were dissolved in 10% dimethyl sulfoxide (DMSO) and then diluted into the nutrient liquid medium. DMSO was obtained from Acros Organics (Fair Lawn, NJ, USA). Resazurin was obtained from Alfa Aesar GmbH & Co. (KG, Karlsruhe, Germany).
(§3) The antimicrobial activity of the extracts and components was tested against 19 microorganisms. The experiment involved 15 strains of bacteria (i.e., 6 standard strains: Staphylococcus aureus ATCC 6538, Bacillus subtilis ATCC 6633, Proteus mirabilis ATCC 12453, Pseudomonas aeruginosa ATCC 27853, Klebsiella pneumoniae ATCC 70063, and Escherichia coli ATCC 25922; 9 isolates: Staphylococcus aureus, Escherichia coli, Salmonella enterica, Salmonella Typhimurium, Proteus mirabilis, Klebsiella pneumoniae, Pseudomonas aeruginosa, Bacillus subtilis, and Bacillus cereus). In addition, four fungal strains (i.e., two standard strains: Candida albicans ATCC 10231 and Aspergillus niger ATCC 16888; two isolates: Saccharomyces cerevisiae and Candida albicans) were tested. All isolates were a generous gift from the Institute of Public Health, Kragujevac. The other microorganisms were provided from the collection held by the Microbiology Laboratory Faculty of Science, University of Kragujevac.
(§4) The bacterial suspensions were prepared by the direct colony method. The turbidity of the initial suspension was adjusted using a densitometer (DEN-1, BioSan, Riga, Latvia). When adjusted to the turbidity of the 0.5 McFarland’s standard (Andrews, 2005) the bacteria suspension contained approximately 10^8 colony-forming units (CFU)/mL, and the suspension of yeast contained 10^6 CFU/mL; 1:100 dilutions of the initial suspension were additionally prepared in sterile 0.85% saline. The suspensions of fungal spores were prepared by gentle stripping of spores from slopes with growing mycelia. The resulting suspensions were 1:1000 diluted in sterile 0.85% saline.
(§5) Antimicrobial activity was tested by determining the minimum inhibitory concentrations (MICs) and minimum microbicidal concentrations (MBCs) using the microdilution plate method with resazurin [56]. The 96-well plates were prepared by dispensing 100 μL of Mueller–Hinton broth for bacteria and Sabouard broth for fungi into each well. A 10 μL aliquot from the stock solution of the tested extract or component was added to the first row of the plate. Then, two-fold serial dilutions were performed using a multichannel pipette. The obtained concentration range was from 10 to 0.08 mg/mL. The method is described in detail in [76].
(§6) Each test included growth control and sterility control.
(§7) Minimum microbicidal concentrations were determined by plating 10 μL of samples from wells where no indicator color change or no mycelia growth was recorded on a nutrient agar medium. At the end of the incubation period, the lowest concentration with no growth (no colony) was defined as the minimum microbicidal concentration.

C. albicans (isolate) = experiment: Microdilution with resazurin, antifungal; assay type: cell-based, Candida albicans; conditions: Candida albicans, antimycotics
Experimental: as §2, §3, §4, §5, §6, §7

A. niger ATCC 16888 = experiment: Microdilution with resazurin, antifungal; assay type: cell-based, Aspergillus niger; conditions: Aspergillus niger, ATCC16888, antimycotics
Experimental: as §2, §3, §4, §5, §6, §7

[2] = test system: HCT 116 cells (colon cancer); experiment: MTT assay; assay type: cell-based, human; conditions: for GI50 / IC50: Homo sapiens; for GI50: read-out: GI50 (50% growth inhibition); for IC50: read-out: IC50
[3] = test system: HeLa cells (cervical adenocarcinoma); experiment: MTT assay; assay type: cell-based, human; conditions: for TGI (total growth inhibition) / GI50 / IC50: HeLa; for GI50 / IC50: Homo sapiens; for GI50: read-out: GI50 (50% growth inhibition); for IC50: read-out: IC50; for SI (selectivity index): IC50 MRC-5 / IC50 HeLa
[4] = test system: MRC-5 cells (nontransformed human lung fibroblast); experiment: MTT assay; assay type: cell-based; conditions: for GI50 / IC50: Homo sapiens; for GI50: MRC5, read-out: GI50 (50% growth inhibition); for IC50: MRC5, read-out: IC50
[5] = S. aureus ATCC 6538, 37 °C, 48 h

With CN[C@H](CC(C)C)C(=O)N[C@H]1C(=O)N[C@@H](CC(N)=O)C(=O)N[C@H]2C(=O)N[C@H]3C(=O)N[C@H](C(=O)N[C@H](C(=O)O)c4cc(O)cc(O)c4-c4cc3ccc4O)[C@H](O)c3ccc(c(Cl)c3)Oc3cc2cc(c3O[C@@H]2O[C@H](CO)[C@@H](O)[C@H](O)[C@H]2O[C@H]2C[C@](C)(N)[C@H](O)[C@H](C)O2)Oc2ccc(cc2Cl)[C@H]1O [VM, vancomycin] the “BIC90 (biofilm inhibitory concentration, 90% reduction of biofilm coverage)” value [1, 5] was over 1000 µg/mL, the IC50 ([1]; ATCC6538, 48 h) was 62.6 µg/mL (≈ 43.2 µM) and the “BIC90 (biofilm inhibitory concentration, 90% reduction of biofilm coverage)” value (P. aeruginosa biofilm; P. aeruginosa, 37 °C) was over 1000 µg/mL. For the same compound, the IC50 (P. aeruginosa biofilm) was 734 µg/mL (≈ 506 µM).
In the case of C[C@@H]1[C@H](O)[C@@H](C)/C=C/C=C/C=C/C=C/C=C/C=C/C=C/[C@H](O[C@@H]2O[C@H](C)[C@@H](O)[C@H](N)[C@@H]2O)C[C@@H]2O[C@](O)(C[C@@H](O)C[C@@H](O)[C@H](O)CC[C@@H](O)C[C@@H](O)CC(=O)O[C@H]1C)C[C@H](O)[C@H]2C(=O)O [AB, amphotericin B], the MFC (C. albicans ATCC 10231; read-out: MFC) is reported as 1.95 µg/mL (≈ 2.11 µM), the MIC (C. albicans ATCC 10231; read-out: MIC) is reported as 0.49 µg/mL (≈ 0.53 µM) and the MFC (C. albicans (isolate); read-out: MFC) is reported as 1.95 µg/mL (≈ 2.11 µM). For the same compound, the MIC (C. albicans (isolate); read-out: MIC) was 0.98 µg/mL (≈ 1.06 µM), the MFC (A. niger ATCC 16888; read-out: MFC) was 0.98 µg/mL (≈ 1.06 µM) and the MIC (A. niger ATCC 16888; read-out: MIC) was 0.98 µg/mL (≈ 1.06 µM).
For CO/N=C(\C(=O)N[C@@H]1C(=O)N2C(C(=O)O)=C(CSc3nc(=O)c(=O)[nH]n3C)CS[C@H]12)c1csc(N)n1 [CT, ceftriaxone], the “BIC90 (biofilm inhibitory concentration, 90% reduction of biofilm coverage)” value [1, 5] was over 1000 µg/mL, the IC50 ([1]; ATCC6538, S. aureus ATCC 6538, 37 °C, 48 h) was 475 µg/mL (≈ 857 µM) and the “BIC90 (biofilm inhibitory concentration, 90% reduction of biofilm coverage)” value (P. aeruginosa biofilm; P. aeruginosa, 37 °C) was over 1000 µg/mL. It also gave an IC50 (P. aeruginosa biofilm; P. aeruginosa, 37 °C) of 116 µg/mL (≈ 210 µM).
In the case of COc1cccc2c1C(=O)c1c(O)c3c(c(O)c1C2=O)C[C@@](O)(C(=O)CO)C[C@@H]3O[C@H]1C[C@H](N)[C@H](O)[C@H](C)O1 [DOX, doxorubicin], the “TGI (total growth inhibition)” value ([2]; HCT 116, 24 h) is reported as under 0.1 µg/mL, the “TGI (total growth inhibition)” value ([2]; HCT 116, 48 h) is reported as under 0.1 µg/mL and the “TGI (total growth inhibition)” value ([2]; HCT 116, 72 h) is reported as under 0.1 µg/mL. For the same compound, the GI50 ([2]; HCT 116, 24 h) was under 0.1 µg/mL, the GI50 ([2]; HCT 116, 48 h) was under 0.1 µg/mL and the GI50 ([2]; HCT 116, 72 h) was under 0.1 µg/mL. The IC50 ([2]; HCT 116, 24 h) was 153 ± 9.69 µg/mL (≈ 281 µM), the IC50 ([2]; HCT 116, 72 h) was 0.41 ± 0.16 µg/mL (≈ 0.754 µM) and the “SI (selectivity index)” value ([2]; IC50 MRC-5 / IC50 HCT 116, 24 h) was 0.57. For the same compound, the “SI (selectivity index)” value ([2]; IC50 MRC-5 / IC50 HCT 116, 72 h) was 0.24, the “TGI (total growth inhibition)” value ([3]; 24 h) was under 0.1 µg/mL and the “TGI (total growth inhibition)” value ([3]; 48 h) was under 0.1 µg/mL. The “TGI (total growth inhibition)” value ([3]; 72 h) was under 0.1 µg/mL, the GI50 ([3]; 24 h) was under 0.1 µg/mL and the IC50 ([3]; 24 h) was 22.9 ± 3.05 µg/mL (≈ 42.2 µM). It also gave a GI50 ([3]; 48 h) of under 0.1 µg/mL, an IC50 ([3]; 48 h) of 1.04 ± 0.06 µg/mL (≈ 1.91 µM) and a GI50 ([3]; 72 h) of under 0.1 µg/mL. The IC50 ([3]; 72 h) was 0.14 ± 0.01 µg/mL (≈ 0.258 µM), the “SI (selectivity index)” value ([3]; 24 h) was 3.8 and the “SI (selectivity index)” value ([3]; 48 h) was 0.92. For the same compound, the “SI (selectivity index)” value ([3]; 72 h) was 0.71, the GI50 ([4]; MRC-5, 24 h) was under 0.1 µg/mL and the GI50 ([4]; MRC-5, 48 h) was under 0.1 µg/mL. It also gave a GI50 ([4]; MRC-5, 72 h) of under 0.1 µg/mL, an IC50 ([4]; MRC-5, 24 h) of 86.9 ± 17.2 µg/mL (≈ 160 µM) and an IC50 ([4]; MRC-5, 48 h) of 0.96 ± 0.1 µg/mL (≈ 1.77 µM). For the same compound, the IC50 ([4]; MRC-5, 72 h) was 0.1 ± 0.05 µg/mL (≈ 0.184 µM), the “TGI (total growth inhibition)” value ([4]; MRC-5, 24 h) was 54.71 ± 4.65 µg/mL (≈ 101 µM) and the “TGI (total growth inhibition)” value ([4]; MRC-5, 48 h) was 6.34 ± 2.90 µg/mL (≈ 11.7 µM). For the same compound, the “TGI (total growth inhibition)” value ([4]; MRC-5, 72 h) was 2.35 ± 0.35 µg/mL (≈ 4.32 µM).
